Test results as given in patent US20230406885A1, “CYCLIC PEPTIDES FOR TRAPPING INTERLEUKIN-1 BETA” (MERCK SHARP & DOHME LLC, priority 2022, published 2023).
*1 amine or outer side, *2 acyl side, *3 side chain or, on linkers, in order; H or OH if unused. Where a SMILES comes first, the peptide text is derived from it. [ ]: non-standard residue; d: D form. Bip(4'-COOH) = N[C@@H](Cc1ccc(-c2ccc(C(=O)O)cc2)cc1)C(=O)O; 1Nal(3S-Me) = C[C@@H](c1cccc2ccccc12)[C@H](N)C(=O)O; hPhe(4-CF3) = N[C@@H](CCc1ccc(C(F)(F)F)cc1)C(=O)O; X8 = O=C([C@H](CCc1cccc(C(F)(F)F)c1)N[*:1])[*:2]; X13 = O=C([C@H](CCc1ccccc1C(F)(F)F)N[*:1])[*:2]; Phe(4-COOH) = N[C@@H](Cc1ccc(C(=O)O)cc1)C(=O)O; h3Pal(5-CN) = N#Cc1cncc(CC[C@H](N)C(=O)O)c1; Pro(4R-NH2) = N[C@H]1CN[C@H](C(=O)O)C1; Ala(4-THP) = N[C@@H](CC1CCOCC1)C(=O)O; AEF = NCCOc1ccc(C[C@H](N)C(=O)O)cc1; 4Pal = N[C@@H](Cc1ccncc1)C(=O)O; dDab = NCC[C@@H](N)C(=O)O; dNMeA = CN[C@H](C)C(=O)O

These compounds were tested against T1, Recombinant human IL-1β (Homo sapiens, UniProt P01584) (assay: IL-6 assay in MRC5 cells: inhibition of IL-1β induced IL-6 secretion (AlphaLISA)). Conditions: inhibition of IL-1β induced IL-6 secretion in MRC5 cells; IL-1β pre-incubated 1 hour with compound; read-out: MRC5 IC50.
T1 construct: purchased BioLegend 579404
Type: cell-based
Procedure, shortened: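 IL-1β at 2×EC80 in seeding medium (EMEM, 0.025% BSA) preincubated 1 h at ambient temperature with compound, then 3000 MRC5 cells/well added and incubated overnight at 37 °C, 5% CO2. IL-6 in conditioned medium quantified by AlphaLISA; IC50 from 4-parameter logistic fit.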

T1 sequence (P01584 117-269): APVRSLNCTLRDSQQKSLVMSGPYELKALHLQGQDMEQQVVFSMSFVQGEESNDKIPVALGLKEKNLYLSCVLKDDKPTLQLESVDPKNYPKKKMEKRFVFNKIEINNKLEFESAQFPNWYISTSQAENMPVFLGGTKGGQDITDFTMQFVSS

IC50 [nM] | Structure (SMILES)
0.0421 | CC(=O)NCCOc1ccc(C[C@@H]2NC(=O)[C@H](CCc3cncc(C#N)c3)NC(=O)[C@@H](CCN)NC(=O)CNC(=O)[C@H](Cc3ccncc3)NC(=O)[C@H](Cc3ccc(-c4ccc(C(=O)O)cc4)cc3)NC(=O)CNC(=O)[C@@H](C)N(C)C(=O)[C@H](CC(=O)O)NC(=O)[C@H]([C@@H](C)c3cccc4ccccc34)NC(=O)[C@@H]3C[C@@H](N)CN3C(=O)CNC(=O)[C@H](Cc3ccc(C(=O)O)cc3)NC(=O)[C@H](Cc3c[nH]c4ccccc34)NC2=O)cc1 [Example 102] (cyclo([AEF](Ac)W[Phe(4-COOH)]G[Pro(4R-NH2)][1Nal(3S-Me)]D[dNMeA]G[Bip(4'-COOH)][4Pal]G[dDab][h3Pal(5-CN)]))
0.041 | CC(=O)NCCOc1ccc(C[C@@H]2NC(=O)[C@H](CCc3cccc(C(F)(F)F)c3)NC(=O)[C@@H](C)NC(=O)[C@H](CO)NC(=O)[C@H](Cc3ccncc3)NC(=O)[C@H](Cc3ccc(-c4ccc(C(=O)O)cc4)cc3)NC(=O)CNC(=O)[C@@H](C)N(C)C(=O)[C@H](CC(=O)O)NC(=O)[C@H]([C@@H](C)c3cccc4ccccc34)NC(=O)[C@@H]3C[C@@H](N)CN3C(=O)CNC(=O)[C@H](Cc3ccc(C(=O)O)cc3)NC(=O)[C@H](Cc3c[nH]c4ccccc34)NC2=O)cc1 [Example 104] (cyclo([AEF](Ac)W[Phe(4-COOH)]G[Pro(4R-NH2)][1Nal(3S-Me)]D[dNMeA]G[Bip(4'-COOH)][4Pal]S[dA][X8]))
0.0263 | CC(=O)NCCOc1ccc(C[C@@H]2NC(=O)[C@H](CCc3cncc(C#N)c3)NC(=O)[C@@H](CCN)NC(=O)CNC(=O)[C@H](CC3CCOCC3)NC(=O)[C@H](Cc3ccc(-c4ccc(C(=O)O)cc4)cc3)NC(=O)CNC(=O)[C@@H](C)N(C)C(=O)[C@H](CC(=O)O)NC(=O)[C@H]([C@@H](C)c3cccc4ccccc34)NC(=O)[C@@H]3C[C@@H](N)CN3C(=O)CNC(=O)[C@H](Cc3ccc(C(=O)O)cc3)NC(=O)[C@H](Cc3c[nH]c4ccccc34)NC2=O)cc1 [Example 106] (cyclo([AEF](Ac)W[Phe(4-COOH)]G[Pro(4R-NH2)][1Nal(3S-Me)]D[dNMeA]G[Bip(4'-COOH)][Ala(4-THP)]G[dDab][h3Pal(5-CN)]))

Further lines, the compound ahead of its results:

Structure (SMILES) | IC50 [nM]
CC(=O)NCCOc1ccc(C[C@@H]2NC(=O)[C@H](CCc3ccccc3C(F)(F)F)NC(=O)[C@@H](C)NC(=O)[C@H](CO)NC(=O)[C@H](Cc3ccncc3)NC(=O)[C@H](Cc3ccc(-c4ccc(C(=O)O)cc4)cc3)NC(=O)CNC(=O)[C@@H](C)N(C)C(=O)[C@H](CC(=O)O)NC(=O)[C@H]([C@@H](C)c3cccc4ccccc34)NC(=O)[C@@H]3C[C@@H](N)CN3C(=O)CNC(=O)[C@H](Cc3ccc(C(=O)O)cc3)NC(=O)[C@H](Cc3c[nH]c4ccccc34)NC2=O)cc1 [Example 103] (cyclo([AEF](Ac)W[Phe(4-COOH)]G[Pro(4R-NH2)][1Nal(3S-Me)]D[dNMeA]G[Bip(4'-COOH)][4Pal]S[dA][X13])) | 0.066
CC(=O)NCCOc1ccc(C[C@@H]2NC(=O)[C@H](CCc3ccc(C(F)(F)F)cc3)NC(=O)[C@@H](C)NC(=O)[C@H](CO)NC(=O)[C@H](Cc3ccncc3)NC(=O)[C@H](Cc3ccc(-c4ccc(C(=O)O)cc4)cc3)NC(=O)CNC(=O)[C@@H](C)N(C)C(=O)[C@H](CC(=O)O)NC(=O)[C@H]([C@@H](C)c3cccc4ccccc34)NC(=O)[C@@H]3C[C@@H](N)CN3C(=O)CNC(=O)[C@H](Cc3ccc(C(=O)O)cc3)NC(=O)[C@H](Cc3c[nH]c4ccccc34)NC2=O)cc1 [Example 105] (cyclo([AEF](Ac)W[Phe(4-COOH)]G[Pro(4R-NH2)][1Nal(3S-Me)]D[dNMeA]G[Bip(4'-COOH)][4Pal]S[dA][hPhe(4-CF3)])) | 0.091
